Laboratory results published in patent publication US4308273A, “1,6-Naphthyridine derivatives, and antidinic and cerebral circulation improver containing such derivatives” (Nippon Kayaku Kabushiki Kaisha, priority 1978, dated 1981).
Where two headings read alike, the source gives them in different places.

Tests used:
[1] = Inhibition of spontaneous nystagmus produced by unilateral destruction of the labyrinth (anti-vertigo action); assay type: in vivo; conditions: cats
Protocol: (1) It is well known that vertigo resulting from the disturbance of the peripheral labyrinth is accompanied by nystagmus. So, we acutely produced the spontaneous nystagmus by unilateral destruction of the labyrinth in cats and used it as an experimental model of vertigo. a pair of Ag--AgCl cup electrodes was placed laterally to both orbits and an indifferent electrode on the forehead. The nystagmus was recorded through an amplifier. The inhibitory effect of the compounds on the nystagmus was expressed by [formula] where A is the frequency of the nystagmus in ten seconds before administration of the compounds and B is the frequency of the nystagmus at the maximum inhibitory point after administration. The duration of the effect was also measured. Compounds dissolved in saline were injected into the femoral vein. Betahistine and diphenidol were used as standard drugs.
A: Doses of compounds injected intraveneously.
B: Effect of compounds on the nystagmus expressed as inhibitory
C: Duration of the effect of compounds

[2] = Acute toxicity (LD50) by intraperitoneal injection; conditions: mouse, in vivo, ip; male mice, intraperitoneal injection (Table 3)
Protocol: LD50 values of the compounds by intraperitoneal injection in mice were determined.

[3] = Effect on the hexobarbital-induced sleeping time; conditions: male mice, 50 mg/kg subcutaneously, 15 min prior to sodium hexobarbital i.p.
Protocol: (§1) Groups consisted of 10 male-mice were administered the compounds or saline subcutaneously 15 min. prior to an intraperitoneal injection of sodium hexobarbital. Sleeping time for each animal in a group was measured. The averaged value of sleeping time in each group was calculated. The action of the sleeping time was expressed by the percentage of the sleeping time in the compound-treated groups to that in the saline-treated group.
(§2) D: Sleeping time of the compound (50 mg/kg, subcutaneously)treated groups
(§3) expressd as percentage to that of the control group.

[4] = mouse, in vivo, 50 mg/kg
Protocol: as §1, §2, §3

[5] = Felis catus, iv, 6 mg/kg injected intravenously, read-out: Effect of compounds on the nystagmus expressed as inhibitory percentage

c1cnc2c(c1)CN(CC1CC1)CC2 [Compound 22]
inhibition at 6 mg/kg [1, 5]: 85%
inhibition at 12 mg/kg ([1]; Felis catus, iv, 12 mg/kg injected intravenously, read-out: Effect of compounds on the nystagmus expressed as inhibitory percentage): 98%
Duration of the effect of compounds (nystagmus) ([1]; 6 mg/kg injected intravenously): 19 min
Duration of the effect of compounds (nystagmus) ([1]; 12 mg/kg injected intravenously): 35 min
LD50 [2]: 176 mg/kg
Sleeping time of the compound treated groups expressed as percentage to that of the control group [3]: 114.4%

OC(CCCN1CCCCC1)(c1ccccc1)c1ccccc1 [diphenidol, reference compound]
inhibition at 6 mg/kg [1, 5]: 70%
Duration of the effect of compounds (nystagmus) ([1]; 6 mg/kg injected intravenously): 45 min
LD50 [2]: 105 mg/kg
Sleeping time of the compound treated groups expressed as percentage to that of the control group [4]: 253.7%
